Experimental data as given in patent publication US5817826A, “Oxazolinone derivatives having cytosolic phospholipase A2 inhibitory activity” (Shionogi & Co., Ltd., priority 1993, dated 1998).

Key:
[1] = target: T1, cytosolic PLA2 (Homo sapiens, UniProt P47712); experiment: Cytosolic PLA2 inhibition activity (sonicated liposomes with 1-palmitoyl-2-[14C]arachidonyl-sn-glycero-3-phosphocholine); format: biochemical; details: for IC50: 2 μM radiolabeled phosphatidylcholine liposomes, 1 mM CaCl2, pH 7.4; for inhibition at 2 µM: compound at 2 μM, relative to enzyme control
T1 sequence (P47712 1-749): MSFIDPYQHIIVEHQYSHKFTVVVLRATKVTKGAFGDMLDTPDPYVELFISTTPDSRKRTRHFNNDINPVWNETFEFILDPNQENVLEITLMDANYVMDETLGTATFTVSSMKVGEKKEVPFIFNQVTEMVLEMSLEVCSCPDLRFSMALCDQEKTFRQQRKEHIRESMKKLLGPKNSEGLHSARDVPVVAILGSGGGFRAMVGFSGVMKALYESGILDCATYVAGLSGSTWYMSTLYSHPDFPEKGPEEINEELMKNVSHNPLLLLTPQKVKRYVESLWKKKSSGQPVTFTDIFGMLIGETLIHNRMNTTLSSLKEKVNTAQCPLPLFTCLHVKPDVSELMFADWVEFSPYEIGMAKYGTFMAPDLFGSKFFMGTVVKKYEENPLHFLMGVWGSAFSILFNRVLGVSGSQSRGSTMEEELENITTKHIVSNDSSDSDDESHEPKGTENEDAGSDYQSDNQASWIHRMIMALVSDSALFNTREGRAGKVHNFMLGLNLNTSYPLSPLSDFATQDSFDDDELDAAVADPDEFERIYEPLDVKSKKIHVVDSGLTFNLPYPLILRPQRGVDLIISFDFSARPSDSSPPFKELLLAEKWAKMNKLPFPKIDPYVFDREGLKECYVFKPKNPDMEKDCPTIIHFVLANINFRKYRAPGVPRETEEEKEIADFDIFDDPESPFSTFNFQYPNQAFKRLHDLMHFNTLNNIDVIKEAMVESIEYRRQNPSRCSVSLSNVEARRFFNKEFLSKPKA
Experimental: Taking the above matter into consideration, the compounds of the present invention were evaluated for their effect on cytosolic PLA2 activity as described in published literature [Kramer, R. M., Robers, E. F., Manetta, J. and Putanam, J. E. et al., J. Biol. Chem. 268 (8): 5268-5272, 1991]. Briefly, PLA2 activity was assayed using sonicated liposomes containing 1-palmitoyl-2-[^14 C]arachidonyl-sn-glycero-3-phosphocholine and sn-1,2-dioleoyl glycerol at a molar ratio of 2:1. The assay mixture contained 1 mM CaCl2, 2 mM 2-mercaptoethanol, 150 mM NaCl, 50 mM Hepes, pH 7.4, and 0.1 mg/ml BSA. The substrate consisted of 2 μM radiolabeled phosphatidycholine liposomes containing 1 μM dioleoyl glycerol.
The amount of released fatty acids in the reaction as mentioned above was quantitated by a liquid scintillation counter. Separately, the same assay was performed except that the compound of the present invention was not added to serve as the enzyme control. The inhibitioory activity was expressed as a percent (%) of PLA2 activity in the enzyme control, and thereby 50% inhibition concentration was calculated.

[2] = hygroscopicity (printed with the elemental analysis); format: physicochemical; details: amorphous form

SMILES	IC50 [1] [µM]	inhibition at 2 µM [1] [%]	hygroscopicity [2] [µg/min]
O=c1oc(-c2ccccc2)c(-c2ccccc2)n1Cc1ccccc1 [Compound 0001]	6	34	
Cn1c(-c2ccccc2)c(-c2ccccc2)oc1=O [Compound 0002]	68		
O=C(Cn1c(-c2ccccc2)c(-c2ccccc2)oc1=O)OC(c1ccccc1)c1ccccc1 [Compound 0003]	52		
O=c1[nH]c(-c2ccccc2)c(-c2ccc(S(=O)(=O)NCCC[n+]3ccccc3)cc2)o1 [Compound 0028]	103		
O=C(O)c1[nH]c(=O)oc1-c1ccccc1 [Compound 0029]	103		
O=C(NCCN1CCCCC1)c1[nH]c(=O)oc1-c1ccccc1 [Compound 0030]	103		5
CN1CCN(S(=O)(=O)c2ccc(-c3oc(=O)[nH]c3-c3ccccc3)cc2)CC1 [Compound 0037]	207		
O=c1oc(-c2ccccc2)c(-c2ccccc2)n1Cc1cccc(F)c1 [Compound 0039, 3-(3-Fluorobenzyl)-4,5-diphenyl-oxazol-2-one]	6.2	24	
CCCCn1c(-c2ccccc2)c(-c2ccccc2)oc1=O [Compound 0044]	54	19	
O=c1oc(-c2ccccc2)c(-c2ccccc2)n1Cc1ccccc1F [Compound 0047, 3-(2-Fluorobenzyl)-4,5-diphenyl-oxazol-2-one]	35	17	
O=c1oc(-c2ccccc2)c(-c2ccccc2)n1Cc1ccc(F)cc1 [Compound 0048, 3-(4-Fluorobenzyl)-4,5-diphenyl-oxazol-2-one]	17		
O=C(O)c1ccc(-c2oc(=O)n(Cc3ccccc3)c2-c2ccc(C(=O)O)cc2)cc1 [Compound 0054, 3-Benzyl-4,5-bis-(4-hydroxycarbonylphenyl)-3-oxazolin-2-one]	124		
C#CCn1c(-c2ccccc2)c(-c2ccccc2)oc1=O [Compound 0062, 3-(2-propynyl)-4,5-diphenyl-oxazol-2-one]	50		
O=c1oc(-c2ccccc2)c(-c2ccccc2)n1S(=O)(=O)c1ccc2ccccc2c1 [Compound 0067]	> 50		
CC(C)=CCC/C(C)=C/CC/C(C)=C/Cn1c(-c2ccccc2)c(-c2ccccc2)oc1=O [Compound 0069]	153		
CC(C)=CCC/C(C)=C/Cn1c(-c2ccccc2)c(-c2ccccc2)oc1=O [Compound 0070]	4.3	46	
CC(C)=CCn1c(-c2ccccc2)c(-c2ccccc2)oc1=O [Compound 0071]	13	18	
O=c1oc(-c2ccccc2)cn1Cc1ccccc1 [Compound 0073, 3-Benzyl-5-phenyl-4-oxazolin-2-one]	50		
O=c1oc(-c2ccccc2)c(-c2ccccc2)n1CCc1ccccc1 [Compound 0075, 4,5-Diphenyl-3-N-phenylethyl-3-oxazolin-2-one]	14	21	
COC(=O)c1c(-c2ccccc2)oc(=O)n1Cc1ccccc1 [Compound 0079]	218		
O=c1oc(-c2ccccc2)c(-c2ccccc2)n1Cc1ccc(Cl)s1 [Compound 0086]	8.3	19	
O=c1oc(-c2ccccc2)c(-c2ccccc2)n1CCCCOc1ccccc1 [Compound 0090]	65	14	
O=c1oc(-c2ccccc2)c(-c2ccccc2)n1Cc1ccccn1 [Compound 0091, 3-(2'-Pyridylmethyl)-4,5-diphenyl-oxazol-2-one]	105	11	
O=c1oc(-c2ccccc2)c(-c2ccccc2)n1CCCc1ccccc1 [Compound 0092]	8.3	28	
CC(C)=CCC/C(C)=C/Cn1cc(-c2ccccc2)oc1=O [Compound 0095]	35	26	
O=c1oc(-c2ccccc2)cn1C(c1ccccc1)c1ccccc1 [Compound 0097]	28	48	

SMILES	IC50 [1] [µM]	inhibition at 2 µM [1] [%]	hygroscopicity [2] [µg/min]
O=c1oc(-c2ccccc2)c(-c2ccccc2)n1COCc1ccccc1 [Compound 0099]	42	12	
O=c1oc(-c2ccccc2)c(-c2ccccc2)n1CCCCc1ccccc1 [Compound 0108]	59		
Cc1noc(C)c1Cn1c(-c2ccccc2)c(-c2ccccc2)oc1=O [Compound 0109]	250		
CC(C)=CCn1cc(C(c2ccccc2)(c2ccccc2)c2ccccc2)oc1=O [Compound 0140]	89		
O=c1[nH]cc(C(c2ccccc2)c2ccccc2)o1 [Compound 0142]	220		
O=c1oc(C(c2ccccc2)c2ccccc2)cn1CCCOc1ccc(C(F)(F)F)cc1 [Compound 0153]	126		
CC(C)=CCn1cc(C(c2ccccc2)c2ccccc2)oc1=O [Compound 0155]	57		
CC(C)=CCC/C(C)=C/Cn1cc(C(c2ccccc2)c2ccccc2)oc1=O [Compound 0156]	120		
O=C1O[C@H](c2ccccc2)[C@H](c2ccccc2)N1Cc1cccc(F)c1 [Compound 0168]	66		
CC(C)=CCC/C(C)=C/CN1C(=O)O[C@H](c2ccccc2)[C@@H]1c1ccccc1 [Compound 0169]	85		
O=C1O[C@@H](c2ccccc2)[C@@H](c2ccccc2)N1Cc1cccc(F)c1 [Compound 0181]	101		
CC(C)=CCC/C(C)=C/CN1C(=O)O[C@@H](c2ccccc2)[C@H]1c1ccccc1 [Compound 0182]	66		
O=C1O[C@H](c2ccccc2)[C@H](c2ccccc2)N1Cc1ccc(Cl)s1 [Compound 0199]	32	32	
O=C1O[C@H](c2ccccc2)[C@@H](c2ccccc2)N1Cc1cccc(F)c1 [Compound 0212]	43	21	
CC(C)=CCC/C(C)=C/CN1C(=O)O[C@H](c2ccccc2)[C@H]1c1ccccc1 [Compound 0213]	9.3	24	
O=C1O[C@H](c2ccccc2)[C@@H](c2ccccc2)N1Cc1ccc(Cl)s1 [Compound 0246]	50	20	
O=C1O[C@H](c2ccccc2)[C@@H](c2ccccc2)N1CCCCc1ccccc1 [Compound 0247]	10	23	
CC(C)=CCC/C(C)=C/CN1C(=O)O[C@@H](c2ccccc2)[C@@H]1c1ccccc1 [Compound 0288]	2	50	
O=C1O[C@@H](c2ccccc2)[C@H](c2ccccc2)N1CCCCc1ccccc1 [Compound 0289]	6.6	36	
CC(C)=CCC/C(C)=C\CN1C(=O)O[C@H](c2ccccc2)[C@H]1c1ccccc1 [Compound 0296]	11	21	
CC(C)=CCC/C(C)=C/CC/C(C)=C/CN1C(=O)O[C@H](c2ccccc2)[C@H]1c1ccccc1 [Compound 0303]	50	18	
CC(C)=CCC/C(C)=C\CN1C(=O)O[C@@H](c2ccccc2)[C@@H]1c1ccccc1 [Compound 0313]	~50	13	
CC(C)=CCC/C(C)=C/CN1C(=O)OC[C@@H]1Cc1ccccc1 [Compound 0315]	90	22	
CC(C)=CCC/C(C)=C/CN1C(=O)O[C@@H](c2cccs2)[C@@H]1c1ccccc1 [Compound 0325]	8.7	32	
CC(C)=CCC[C@@H](C)CCN1C(=O)O[C@@H](c2ccccc2)[C@@H]1c1ccccc1 [Compound 0346]	3	47	
CC(C)=CCC[C@H](C)CCN1C(=O)O[C@@H](c2ccccc2)[C@@H]1c1ccccc1 [Compound 0347]	7.4	33	
